# Reference: PMC4573514, “Identification and characterization of [6]-shogaol from ginger as inhibitor of vascular smooth muscle cell proliferation” (Molecular Nutrition & Food Research, 2015)
# Entries after “also recorded” stand apart in the source; their conditions may differ.
# Experiments:
# [1] = tested on: HUVECtert; test: Resazurin conversion assay in endothelial cells; type: cell-based, human; conditions: for Resazurin metabolic conversion in HUVECs (endothelial viability/proliferation): HUVECtert, 48 h, n.s. = no significant difference, up to stated concentration
# Procedure: VSMC were seeded in 96-well plates at 5 × 10^3 cells/well. After 24 h, cells were serum-starved for 24 h to render them quiescent. Quiescent cells were pretreated for 30 min with ginger extract, compounds, or vehicle (0.1% DMSO) as indicated, and subsequently stimulated for 48 h with PDGF-BB (20 ng/mL). […] Total metabolic activity was measured by monitoring the increase in fluorescence at a wavelength of 590 nm using an excitation wavelength of 535 nm in a 96-well plate reader (Tecan GENios Pro). HUVECtert cells,[20] were seeded in 96-well plates at 5 × 10^3 cells/well. After 24 h, HUVECtert cells were treated with compounds or vehicle (0.1% DMSO) as indicated and incubated for 48 h. Then, cells were washed with PBS and incubated in culture medium containing 10 μg/mL resazurin for 2 h. The detection step is performed as described above.
# [2] = tested on: VSMC; test: Resazurin conversion assay, PDGF-BB-induced VSMC proliferation; type: cell-based, rat; conditions: for IC50: VSMC
# Procedure: VSMC were seeded in 96-well plates at 5 × 10^3 cells/well. After 24 h, cells were serum-starved for 24 h to render them quiescent. Quiescent cells were pretreated for 30 min with ginger extract, compounds, or vehicle (0.1% DMSO) as indicated, and subsequently stimulated for 48 h with PDGF-BB (20 ng/mL). To measure the number of metabolically active VSMC by resazurin conversion,[19], cells were washed with PBS and incubated in serum-free medium containing 10 μg/mL resazurin for 2 h. Total metabolic activity was measured by monitoring the increase in fluorescence at a wavelength of 590 nm using an excitation wavelength of 535 nm in a 96-well plate reader (Tecan GENios Pro). HUVECtert cells,[20] were seeded in 96-well plates at 5 × 10^3 cells/well. After 24 h, HUVECtert cells were treated with compounds or vehicle (0.1% DMSO) as indicated and incubated for 48 h. Then, cells were washed with PBS and incubated in culture medium containing 10 μg/mL resazurin for 2 h. The detection step is performed as described above.
# [3] = tested on: VSMC; test: Assessment of cytotoxicity by LDH release; type: cell-based; conditions: PDGF-BB 20 ng/mL, 24 h, n.s. = no significant difference, up to stated concentration
# Procedure: VSMC were seeded in 96-well plates at 5 × 10^3 cells/well. Twenty-four hours later, cells were serum starved for 24 h to render them quiescent. Quiescent cells were pretreated for 30 min with compounds, or vehicle (0.1% DMSO) as indicated, and subsequently stimulated for 24 h with PDGF-BB (20 ng/mL). Loss of cell membrane integrity as a sign for cell death can be quantified by the release of the soluble cytosolic protein lactate dehydrogenase (LDH),[23]. For this, the supernatant of the treated cells was assessed for LDH activity. For estimation of the total LDH, identically treated samples were incubated for 45 min in the presence of 1% Triton X-100. The released and total LDH enzyme activity was measured for 30 min at the dark in the presence of 4.5 mg/mL lactate, 0.56 mg/mL NAD+, 1.69 U/mL diaphorase, 0.004% w/v BSA, 0.15% w/v sucrose, and 0.5 mM 2-p-iodophenyl-3-nitrophenyl tetrazolium chloride. The enzyme reaction was stopped with 1.78 mg/mL oxymate and the absorbance was measured at 490 nm. Potential effects on cell viability were estimated as percentage of extracellular LDH enzyme activity. The cytotoxic natural product digitonin (100 μg/mL) was used as a positive control.
# [4] = tested on: VSMC; test: Crystal violet biomass staining, PDGF-BB-stimulated VSMC; type: cell-based; conditions: Rattus norvegicus, PDGF-BB 20 ng/mL, 48 h
# Procedure: VSMC were seeded in 96-well plates at 5 × 10^3 cells/well. Twenty-four hours later, cells were serum starved for 24 h to render them quiescent. Quiescent cells were pretreated for 30 min with ginger extract, compounds, or vehicle (0.1% DMSO) as indicated and subsequently stimulated for 48 h with PDGF-BB (20 ng/mL). To determine the total biomass by crystal violet staining, cells were then incubated in 100 μL of crystal violet staining solution (0.5% crystal violet, 20% methanol) for 15 min and then washed with ddH2O. After drying, 100 μL EtOH/Na-citrate solution were added (EtOH: 0.1M Na-citrate = 1:1) and the absorbance of the samples was measured at 595 nm in a 96-well plate reader (Tecan sunrise).
# [5] = tested on: VSMC; test: Cell-cycle analysis by PI staining and flow cytometry; type: cell-based, rat; conditions: 10 μM, PDGF-BB 20 ng/mL 16 h, PI stained nuclei
# Procedure: VSMC were seeded in 12-well plates at 1 × 10^4 cells/well. Twenty-four hours later, cells were serum starved for 24 h to render them quiescent. Quiescent cells were preincubated with [6]-shogaol (10 μM) or vehicle ([…]) for 30 min. PDGF-BB (20 ng/mL) was added, and 16 h later cells were trypsinized, washed once with PBS, and resuspended in a hypotonic propidium iodide (PI) solution containing 0.1% v/v Triton X-100, 0.1% w/v sodium citrate, and 50 μg/mL PI. After incubation at 4°C overnight, PI-stained nuclei were analyzed by flow cytometry (excitation 488 nm, emission 585 nm; FACScalibur; BD Biosciences, Germany).
# [6] = tested on: Nrf2/HO-1; test: Immunoblot analysis of HO-1 in WT and Nrf2-/- mouse embryonic fibroblasts; type: cell-based; conditions: 10 or 3 μM
# Procedure: (§1) Cells (MEF or VSMC) were seeded onto six-well plates ((3–4) × 10^5 cells/well). Twenty-four hours later, MEF were treated with vehicle (0.1% DMSO) or [6]-shogaol at the indicated concentrations for 20 h; VSMC were serum starved for another 24 h, then quiescent cells were pretreated for 30 min with vehicle (0.1% DMSO) or [6]-shogaol as indicated and subsequently stimulated for 20 h with PDGF-BB (20 ng/mL). Then, cells were lysed and protein extracts were subjected to SDS-PAGE electrophoresis and immunoblot analysis as described,[22]. Proteins were visualized using enhanced chemiluminescence reagent and an LAS-3000 luminescent image analyzer (Fujifilm) with AIDA software (Raytest) for densitometric evaluation.
# [7] = parameters: method as in PMID 19201263; conditions: rats, single oral administration of ginger oleoresin 300 mg/kg; ref [39]; cited from earlier work
# [8] = tested on: VSMC; test: BrdU incorporation assay (de novo DNA synthesis); type: cell-based; conditions: Rattus norvegicus, PDGF-BB 20 ng/mL, read-out: Inhibition of PDGF-stimulated DNA synthesis, BrdU incorporation (IC50)
# Procedure: VSMC were seeded in 96-well plates at 5 × 10^3 cells/well. Twenty-four hours later, cells were serum starved for 24 h to render them quiescent. Quiescent cells were pretreated for 30 min with compounds, or vehicle (0.1% DMSO) as indicated and subsequently stimulated with PDGF-BB (20 ng/mL). To estimate de novo DNA synthesis in VSMC [21],[22], BrdU was added 2 h after PDGF stimulation, and the incorporation amount was determined 22 h afterwards according to the manufacturer's instructions (Roche Diagnostics).
# [9] = tested on: HO-1; test: Immunoblot analysis of HO-1 expression in VSMC; type: cell-based, rat; conditions: 3 and 10 μM, PDGF-BB 20 h
# Procedure: as §1
# [10] = Rattus norvegicus, 48 h, PDGF-BB 20 ng/mL, 48 h, read-out: Resazurin metabolic conversion (IC50)
SMILES,Resazurin metabolic conversion in HUVECs (endothelial viability/proliferation) [1],"IC50 [2, 10]",Cell death (LDH release) [3],IC50 [4],other results
"CCCCCCCC(O)CCc1ccc(O)c(OC)c1 (racemic) [rac-[6]-Dihydroparadol, rac-[6]-dihydroparadol]",n.s. (up to 30 μM),10 µM,n.s. (up to 30 μM),4.11 µM,–
"COc1cc(CCC(C)=O)ccc1O [Zingerone, zingerone]",–,> 100 µM,–,–,–
"CCCCC[C@H](O)CC(=O)CCc1ccc(O)c(OC)c1 [[6]-Gingerol, [6]-gingerol]",n.s. (up to 30 μM),13.2 µM,n.s. (up to 100 μM),8.77 µM,–
"CCCCCCCC(=O)CCc1ccc(O)c(OC)c1 [[6]-Paradol, [6]-paradol]",n.s. (up to 30 μM),5.3 µM,n.s. (up to 30 μM),3.34 µM,–
"CCCCCC=CC(=O)CCc1ccc(O)c(OC)c1 [[6]-Shogaol, [6]-shogaol]",n.s. (up to 10 μM),2.7 µM,n.s. (up to 10 μM),1.13 µM,"Resazurin metabolic conversion in HUVECs (endothelial viability/proliferation) ([1]; listed as [6]-shogaol): did not interfere with endothelial cell proliferation; also recorded: did obviously not impair endothelial viability and proliferation; Cell-cycle distribution [5]: counteracted the PDGF-induced transition of VSMC from the G0/G1 cell-cycle phase to the G2/M phase; HO-1 induction in WT vs Nrf2-/- fibroblasts [6]: strictly Nrf2-dependent increase of HO-1; IC50 ([2]; PDGF-BB 20 ng/mL, 48 h, read-out: Resazurin metabolic conversion (IC50)): 2.72 µM; Antiproliferative effect in the presence of HO-1 inhibitor tin protoporphyrin IX ([2]; [6]-shogaol 3 μM, SnPP 10 μM pretreatment 1 h, resazurin conversion): lost its antiproliferative activity; also recorded: loses its antiproliferative influence on VSMC; Cell death (LDH release) ([3]; listed as [6]-shogaol): did not exhibit cytotoxicity toward VSMC; Peak plasma concentration [7]: 0.11 µg/L; Peak plasma concentration (converted) [7]: 0.40 µM; IC50 [8]: 3 µM; HO-1 levels compared to vehicle treated cells [9]: significantly elevated HO-1 levels"
"CC(=O)O[C@H]1C(=O)[C@@]2(C)[C@H]([C@H](OC(=O)c3ccccc3)[C@]3(O)C[C@H](OC(=O)[C@H](O)[C@@H](NC(=O)c4ccccc4)c4ccccc4)C(C)=C1C3(C)C)[C@]1(OC(C)=O)CO[C@@H]1C[C@@H]2O [paclitaxel, reference compound]",–,–,–,–,"IC50 ([1]; Homo sapiens, Endothelial cell, endothelial cells, data not shown, read-out: Anti-proliferative effect in endothelial cells (IC50)): 0.004 µM; IC50 ([2]; Rattus norvegicus, data not shown, read-out: Anti-proliferative effect in VSMC (IC50)): 0.108 µM"
